Results as given in patent publication US20260263616A1, “NOVEL HE[…] USE THEREOF” (PINOTBIO, INC., priority 2023, published 2026).
Square brackets hold non-standard residues; d marks the D form. Peptide text beside a SMILES is read from it. * marks the point of attachment. Dolaproine = CO[C@@H]([C@@H]1CCCN1)[C@@H](C)C(=O)O; Dil = CC[C@H](C)[C@H](NC)[C@@H](CC(=O)O)OC; X1 = C[C@@H](N*)[C@@H](O)c1ccccc1; NMeV = CN[C@H](C(=O)O)C(C)C

What was measured:
[1] = test system: lung cancer cell line (A549); assay: Cell viability assay (CellTiter-Glo), A549; type: cell-based; conditions: for IC50: A549 cells, 3 days incubation, CellTiter-Glo luminescence, 50% of untreated control
Protocol: (§1) FaDu or A549 cell lines were seeded into 96-well plates at a density of 3,000 cells per well and incubated at 37° C., 5% CO2. After 24 hours, 100 μL of drug at 9 concentrations (from 1000 nM, serially diluted 1/5) was added to the cell line. As the drugs, the compound of Chemical Formula 2 prepared according to Example 1, SC209 (MedChemExpress), and MMAE were treated, and at this time, a control group (drug concentration 0) without drug treatment was also prepared. After incubation under incubator conditions (37° C., 5% CO2) for 3 days, 100 µL of
(§2) CellTiter-Glo reagent (using CellTiter-Glo® Luminescent Cell Viability Assay kit (Promega, G7571)) was added to each well of the plate, followed by pipetting. After incubation for 10 minutes (RT), luminescence was measured, and when the luminescence value at drug concentration 0 is regarded as 100%, the concentration showing 50% luminescence value is the IC50 value.

[2] = test system: head and neck squamous cell carcinoma cell line (FaDu); assay: Cell viability assay (CellTiter-Glo), FaDu; type: cell-based; conditions: for IC50: FaDu cells, 3 days incubation, CellTiter-Glo luminescence, 50% of untreated control
Protocol: as §1, §2

SMILES	IC50 ([1]; Homo sapiens, 72 h)	cell viability compared with SC209 and MMAE ([1]; lung cancer cell line (printed A529), 3 days treatment)	cell viability compared with SC209 and MMAE ([2]; FaDu cell line, 3 days treatment)	IC50 ([2]; Homo sapiens, 72 h)	IC50 [1]	IC50 [2]
CN[C@H](C(=O)N[C@H](C(=O)N(C)[C@H](/C=C(\C)C(=O)O)C(C)C)C(C)(C)C)C(C)(C)c1ccc(OC)c(N)c1 [Compound of Chemical Formula 2]	22.6 nM	decreased to a level similar to that observed with SC209 and MMAE treatment	decreased to a level similar to that observed with SC209 and MMAE treatment	6.17 nM		
CC[C@H](C)[C@@H]([C@@H](CC(=O)N1CCC[C@H]1[C@H](OC)[C@@H](C)C(=O)N[C@H](C)[C@@H](O)c1ccccc1)OC)N(C)C(=O)[C@@H](NC(=O)[C@@H](NC)C(C)C)C(C)C [MMAE, reference compound] (H-[NMeV]V[Dil][Dolaproine]-X1)					3.72 nM	1.57 nM
